# Assay results published in patent publication US8252832B2, “Kinesin inhibitors as cancer therapeutics” (Novartis AG, priority 2007, dated 2012).
# What was measured:
# [1] = tested on: MV4; 11; test: LDH release assay; format: cell-based; conditions: Homo sapiens; MV4;11, 48 h
# Excerpt: (§1) Identification of tumor types that are the most sensitive to the KSP inhibitors of the present invention can be accomplished using an unbiased approach that uses several cell-based assays. The assays chosen were as follows: • CellTiter-Glo®. This is an assay designed to measure ATP concentration in a cell culture, and can be correlated to cell number. Briefly CellTiter-Glo® (Promega Corporation) is a homogeneous method using the single CellTiter-Glo® reagent to detect ATP wherein ATP in the assay drives the activity of a thermostable luciferase to create a luminescent signal which can then be measured and correlated with the number of viable cells. Briefly, for adherent cells, 1,000 to 5,000 cells/well were plated in 96-well plates (100 μl/well) and let to adhere for 24 hours before being treated with drug. For non-adherent cells, 1,000 to 10,000 cells/well were plated in 96-well plates (100 μl/well) and immediately treated with drug. Drug dilutions were prepared in DMSO at 1000 times the final concentration. These dilutions were then diluted 1/100 in growth media before being added to the cells (11 μl/well) to achieve the desired final concentration. After 48 h in a 37° C. tissue culture incubator, the plates were processed for the CellTiter-Glo®assay according to the manufacturer's instructions. Protocol for a 72 hour cell proliferation assay: The 72 hour assay was performed the same way as the 48 hour assay except for the following modifications: For adherent cells, 500 to 5,000 cells/well were plated in 96-well plates (90 μl/well cell growth media) and left to adhere for 24 hours before being treated with drug. For non-adherent cells, 1,000 to 10,000 cells/well were plated in 96-well plates (90 μl/well cell growth media) and immediately treated with drug. Data values presented represent the concentration of test compound required for a 50% reduction in growth. • LDH release. […] The enzymatic reaction is coupled to a chemical reaction that uses a tetrazolium salt to form a formazan that is red and can be detected by its absorbance at 490 nm. […]
# [2] = tested on: Colo-205; test: LDH release assay; format: cell-based; conditions: Homo sapiens
# Excerpt: as §1
structure (smiles),measurement,setting,value
CC(C)(C)[C@H](c1nc(-c2cc(F)ccc2F)cn1Cc1ccccc1)N(CC[C@H](N)CF)C(=O)CO [Compound IIa],EC50,[1],0.03 nM
same,EC50,"[2]; Colo-205, 48 h",0.11 nM
same,EC50,"[2]; Colo-205, 72 h",0.16 nM
